What all share (type): cell-based, Acer pseudoplatanus L.
Assay [1] has as its system Phospholipase D (E.C: 3.1.4.4). Briefly: Elicitation of phospholipase D activity (NBD-PE fluorescence). The following applies: methyl jasmonate 0 to 5 nM; 2′-fucosyl lactose 1 nM; dose-dependent. An excerpt: Vegetable material: Acer pseudoplatanus L. cells in Suspension
Phospholipase D (E.C: 3.1.4.4) (Plase D) activity: this is a phosphatidylcholine phosphatidohydrolase which releases the O-R3 group, according to the diagram below. To the extent that O-R3 is marked (a fluorochrome for example), quantifying this group is equivalent to assaying Plase D activity. For the experiments the substrate used is phosphatidylcholine conjugated to a fluorochrome, i.e. the product nitrobenzoxadiazole phosphoethanolamine (NBD-PE). The retained excitation and emission wavelengths of the fluorochrome are 460 nm and 534 nm respectively. [drawing 5]
Principle: assaying Plase D activity is equivalent to estimating the fluorescence variation at 534 nm of a reaction medium with a spectrofluorimeter (Perkin Elmer).
Test: the reaction medium in a microtitration plate well is as follows: 1.3 10^7 Acer pseudoplatanus L. cells are incubated in a 50 mM HEPES buffer, pH 6.8 enriched with CaCl2 (1 μM), ATP (2 μM), octyl-D-glucoside 50 μM, GTP (6 μM) in the presence of the NBD-PE substrate (4 μM), in the presence or absence of an elicitor (0-100 nM): 2′-fucosyl-lactose (FL), compound A; XXFGol, compound B, in the presence or not in the presence of a methyl jasmonate effector (0-5 nM). The Plase D activity assay is carried out by measuring the fluorescence at 534 nm.
Evaluation of the experimental data. For each sample at least three kinetics are recorded; the Plase D activity is given by the slope of the regression curve. The results are expressed by Δ F534 min^−1. One point on the graph corresponds to the linear regression treatment of at least 2 kinetic curves originating from 2 different samples.
The Plase D elicitation response is evaluated according to the fluorescence variation at […]; the 100% reference value corresponds to the fluorescence in the controls (non-elicited cells)

Assay [2] deals with glycosylhydrolases. Briefly: Effect of effectors on the glycosylhydrolase elicitation responses. The note with it: okadaic acid 5 nM, boroglycine 500 nM; for Early glycosylhydrolase elicitation responses in the presence of the effector: cycloheximide 1 μM, modulation with the exception of 1,3 β-D-glucanase activity. The procedure:
(§1) Test: 2.10^6 Acer pseudoplatanus L. cells were elicited under circular stirring (80 rpm), in 25 ml of culture medium (without 2,4-D) by 50 nM of 2′-fucosyl lactose (compound A) or 50 nM of methyl α-L-Fuc (1→2) β-D-Gal (1→2) β-D-Xyl trisaccharide (compound B)(synthesized according to Lopez et al., 1994) or for a variable time (0 to 42 hours) in the presence or not in the presence of an effector: cycloheximide (1 μM), okadaic acid (5 nM), staurosporine (500 nM), or boroglycine (500 nM). The elicitation experiment is stopped by putting the cells in ice. The cells recovered after decantation and taken up in approximately 1 ml of elicitation buffer are the subject of a specific protein extraction.
(§2) D-glycosylhydrolase extraction. The enzyme extracts are prepared from elicited or non-elicited cells. The cells are homogenized at 0° C. in Tris-HCl buffer (50 mM pH 7.2) containing 1 M of NaCl with a Vibracell™ Bioblock sonicator, maximum power, for 3 times 1 minute. The homogenates are centrifuged at 4° C. (12000 g, 15 minutes) then dialysed and concentrated on Ultrafree™ Millipore ultrafiltration units (cut-off threshold 10 kDa). The retentates, taken up in distilled water, are crude extracts.
(§3) Evaluation of the experimental data. At least 2 kinetics were carried out per sample, and per set of experiments. The reaction rate (ΔA410 minutes^−1 for example) is obtained by linear regression from 4 kinetic curves. The results are expressed by the ratio R (enzymatic activity in elicited cells/enzymatic activity in non-elicited control cells).

Assay [3] has as its system 1,3 β-D-glucanase (EC 3.2.1.39). Briefly: Induction of a 1,3 β-D-glucanase response in elicited cells. The note with it: elicited cells; cycloheximide (1 μM); late response. Here is the method:
(§4) Vegetable material: Acer pseudoplatanus L Cells in Suspension
as §1, §2
1,3 β-D-glucanase activity assay. This is based on colorimetric assay (ferricyanide test of Kidby and Davidson (1973) of the substrate reducing units (laminarin or laminarin hexamer) released during the hydrolysis. The reaction medium contains the enzyme extract (1 μg of proteins), the substrate (5 μM of reduced laminarin hexamer) in 100 μl of sodium acetate buffer (0.1 M), pH 5.0); the enzymatic reaction at 40° C. develops over a variable time (1 to 3 hours).
as §3

For assay [4], the system named is 1,4 β-D-glucanase (EC 3.2.1.4). Briefly: Induction of a 1,4 β-D-glucanase response in elicited cells. The following applies: elicited cells; cycloheximide (1 μM); late response. Here is the method: as §4, §1, §2
1,4 β-D-glucanase activity assay. This is based on colorimetric assay (ferricyanide test of Kidby and Davidson (1973) of the cellopentaose substrate reducing units released during the hydrolysis. The reaction medium contains the enzyme extract (1 μg of proteins), reduced cellopentaose (4 μM) in 100 μl of sodium acetate buffer (0.1 M), pH 5.0); the enzymatic reaction at 40° C. develops over a variable time (1 to 3 hours).
as §3

`CC/C=C\CC1C(=O)CCC1CC(=O)OC` (centres unmarked) [methyl jasmonate, reference compound]: in assay [1], the “Plase D elicitation: methyl jasmonate versus 2′-fucosyl lactose” value is recorded as “antagonistic”.

Turning to `C=C1[C@@H](O)[C@@H]2O[C@]3(CC[C@H](/C=C/[C@@H](C)[C@@H]4CC(C)=C[C@@]5(O[C@H](C[C@@](C)(O)C(=O)O)CC[C@H]5O)O4)O3)CC[C@H]2O[C@@H]1[C@@H](O)C[C@H](C)[C@H]1O[C@@]2(CCCCO2)CC[C@H]1C` [okadaic acid], in assay [2], the “Early glycosylhydrolase elicitation responses in the presence of the effector” value was “modulated” and the “Late glycosylhydrolase elicitation responses in the presence of the effector” value is recorded as “not affected”.

As to boroglycine, in assay [2], the “Early glycosylhydrolase elicitation responses in the presence of the effector” value is on record as “modulated” and the “Late glycosylhydrolase elicitation responses in the presence of the effector” value is reported as “not affected”.

On to `C[C@@H]1C[C@@H]([C@H](O)CC2CC(=O)NC(=O)C2)C(=O)[C@@H](C)C1` [cycloheximide, reference compound], for which, in assay [3], the “1,3 β-D-glucanase late response R in the presence of cycloheximide” value is recorded as around 3. Moreover, in assay [4], the “1,4 β-D-glucanase late response R in the presence of cycloheximide” value is around 2. The “Early glycosylhydrolase elicitation responses in the presence of the effector” value in assay [2] is on record as “maintained”.

Source of the values: patent US20040023924A1, “Use of xyloglucan polymers and oligomers, and derivative compounds, as phytosanitary products and biofertilizers” (priority 2000, published 2004).
